Results on 14 compounds are retold here after patent US7960339B2, “Antimicrobial peptides” (Österreichische Akademie der Wissenschaften, priority 2006, dated 2011).

Peptide text beside a SMILES is read from it.

For this assay, the system named is C. neoformans ATCC 32045. It counts as cell-based. The note with it: ATCC 32045, 72 h. The procedure:
C. neoformans ATCC 32045 cultures were maintained on yeast medium (YM; Difco Laboratories, Detroit, Mich.) agar plates at 4° C. Prior to the assay, the cultures were grown on agar plates and incubated for 72 hrs at 26° C. Two colonies of these newly grown fungal cultures were then inoculated in 5 ml of 2×YM broth, vortexed, and diluted 10-fold in 2×YM broth, for an approximate final assay concentration of 1×105 to 5×10^5 CFU/ml. In 96-well tissue culture plates, fungal suspensions in 2×YM broth were added to the peptides dispensed at concentrations ranging from 1 mg/ml to 1 μg/ml derived from serial twofold dilutions in sterile water. The plates were then incubated for 72 hrs at 26° C. The relative percent growth of the fungi found for each test sample was determined by the optical density at 620 nm (OD620) by using a Titertek Multiskan Plus apparatus. […] The IC50 were calculated by using a sigmoidal curve-fitting software program (Graphpad Prism; ISI Software, San Diego, Calif.).
With `CC[C@H](C)[C@H](NC(=O)[C@H](CCCNC(=N)N)NC(=O)[C@@H](NC(=O)[C@H](CC(N)=O)NC(=O)[C@H](CCCNC(=N)N)NC(=O)[C@H](CCC(N)=O)NC(=O)[C@H](Cc1c[nH]c2ccccc12)NC(=O)[C@@H](N)Cc1ccccc1)[C@@H](C)CC)C(=O)N[C@@H](CCCNC(=N)N)C(=O)N[C@@H](CCCNC(=N)N)C(N)=O` [VS1-13, FWQRNIRIRR-NH2] (H-FWQRNIRIRR-NH2; N-terminus assumed), the “average IC50” value was found to be 8 µg/mL and the “average MIC” value is 32 µg/mL.
With `CC[C@H](C)[C@H](NC(=O)[C@H](CCCNC(=N)N)NC(=O)[C@@H](NC(=O)[C@H](CCCNC(=N)N)NC(=O)[C@@H](N)CCCNC(=N)N)[C@@H](C)CC)C(=O)N[C@@H](CC(N)=O)C(=O)N[C@@H](CCCNC(=N)N)C(=O)N[C@@H](CCC(N)=O)C(=O)N[C@@H](Cc1c[nH]c2ccccc12)C(=O)N[C@@H](Cc1ccccc1)C(N)=O` [VS1-14, RRIRINRQWF-NH2] (H-RRIRINRQWF-NH2; N-terminus assumed), the “average IC50” value stood at 12 µg/mL and the “average MIC” value is 32 µg/mL.
Turning to `CC[C@H](C)[C@H](NC(=O)[C@H](CCCNC(=N)N)NC(=O)[C@H](CCCCN)NC(=O)[C@H](Cc1c[nH]c2ccccc12)NC(=O)[C@@H](N)CCCNC(=N)N)C(=O)N[C@@H](CC(N)=O)C(=O)N[C@@H](CCCNC(=N)N)C(=O)N[C@@H](CCC(N)=O)C(=O)N[C@@H](Cc1c[nH]c2ccccc12)C(=O)N[C@@H](Cc1ccccc1)C(N)=O` [VS1-16, RWKRINRQWF-NH2] (H-RWKRINRQWF-NH2; N-terminus assumed), the “average IC50” value was determined as 13 µg/mL and the “average MIC” value amounted to 32 µg/mL.
On to `CC[C@H](C)[C@H](NC(=O)[C@H](CCCNC(=N)N)NC(=O)[C@H](CCCNC(=N)N)NC(=O)[C@H](CCC(N)=O)NC(=O)[C@H](Cc1c[nH]c2ccccc12)NC(=O)[C@@H](N)Cc1ccccc1)C(=O)N[C@@H](CCCNC(=N)N)C(=O)N[C@@H](CCCCN)C(=O)N[C@@H](Cc1c[nH]c2ccccc12)C(=O)N[C@@H](CCCNC(=N)N)C(N)=O` [VS1-17, FWQRRIRKWR-NH2] (H-FWQRRIRKWR-NH2; N-terminus assumed), for which the “average IC50” value amounted to 5 µg/mL and the “average MIC” value was found to be 32 µg/mL.
The like results for `CC[C@H](C)[C@H](NC(=O)[C@H](CC(N)=O)NC(=O)[C@H](CCCNC(=N)N)NC(=O)[C@H](CCC(N)=O)NC(=O)[C@H](Cc1c[nH]c2ccccc12)NC(=O)[C@H](Cc1ccccc1)NC(=O)[C@@H]1CCCN1)C(=O)N[C@@H](CCCNC(=N)N)C(=O)N[C@@H](CCCCN)C(=O)N[C@@H](Cc1c[nH]c2ccccc12)C(=O)N[C@@H](CCCNC(=N)N)C(N)=O` [VS1-19, PFWQRNIRKWR-NH2] (H-PFWQRNIRKWR-NH2; N-terminus assumed) were, in that order, 3 µg/mL and 8 µg/mL.
For `CC[C@H](C)[C@H](NC(=O)[C@H](CC(N)=O)NC(=O)[C@H](CCCNC(=N)N)NC(=O)[C@H](Cc1c[nH]c2ccccc12)NC(=O)[C@@H](N)Cc1ccccc1)C(=O)N[C@@H](CCCNC(=N)N)C(=O)N[C@@H](CCCCN)C(=O)N[C@@H](Cc1c[nH]c2ccccc12)C(=O)N[C@@H](CCCNC(=N)N)C(N)=O` [VS1-20, FWRNIRKWR-NH2] (H-FWRNIRKWR-NH2; N-terminus assumed) the same measures were 4 µg/mL and 16 µg/mL.
For `CC[C@H](C)[C@H](NC(=O)[C@H](CCCNC(=N)N)NC(=O)[C@H](Cc1c[nH]c2ccccc12)NC(=O)[C@@H](N)Cc1ccccc1)C(=O)N[C@@H](CCCNC(=N)N)C(=O)N[C@@H](CCCCN)C(=O)N[C@@H](Cc1c[nH]c2ccccc12)C(=O)N[C@@H](CCCNC(=N)N)C(N)=O` [VS1-21, FWRIRKWR-NH2] (H-FWRIRKWR-NH2; N-terminus assumed) the same measures were 4 µg/mL and 16 µg/mL.
For the compound `CC[C@H](C)[C@H](NC(=O)[C@H](CCCNC(=N)N)NC(=O)[C@@H](NC(=O)[C@H](CCCNC(=N)N)NC(=O)[C@H](Cc1c[nH]c2ccccc12)NC(=O)[C@H](Cc1ccccc1)NC(=O)[C@@H]1CCCN1)[C@@H](C)CC)C(=O)N[C@@H](CCCNC(=N)N)C(=O)N[C@@H](CCCNC(=N)N)C(=O)N[C@@H](CC(=O)O)C(N)=O` [VS1-23, PFWRIRIRRD-NH2] (H-PFWRIRIRRD-NH2; N-terminus assumed), the “average IC50” value was found to be 4 µg/mL and the “average MIC” value is 8 µg/mL.
The like results for `CC[C@H](C)[C@H](NC(=O)[C@H](CCCNC(=N)N)NC(=O)[C@@H](NC(=O)[C@H](CCCNC(=N)N)NC(=O)[C@H](Cc1c[nH]c2ccccc12)NC(=O)[C@H](Cc1ccccc1)NC(=O)[C@H](Cc1ccccc1)NC(=O)[C@@H]1CCCN1)[C@@H](C)CC)C(=O)N[C@@H](CCCNC(=N)N)C(=O)N[C@@H](CCCNC(=N)N)C(N)=O` [VS1-24, PFFWRIRIRR-NH2] (H-PFFWRIRIRR-NH2; N-terminus assumed) were, in that order, 3 µg/mL and 8 µg/mL.
For `CC[C@H](C)[C@H](NC(=O)[C@H](CCCNC(=N)N)NC(=O)[C@H](CCC(N)=O)NC(=O)[C@H](CCCNC(=N)N)NC(=O)[C@H](Cc1c[nH]c2ccccc12)NC(=O)[C@H](Cc1ccccc1)NC(=O)[C@@H]1CCCN1)C(=O)N[C@@H](CCCNC(=N)N)C(=O)N[C@@H](CCCNC(=N)N)C(N)=O` [VS1-25, PFWRQRIRR-NH2] (H-PFWRQRIRR-NH2; N-terminus assumed) the same measures were 6 µg/mL and 32 µg/mL.
As for `CC[C@H](C)[C@H](NC(=O)[C@H](CCC(N)=O)NC(=O)[C@H](CCCNC(=N)N)NC(=O)[C@H](CCCNC(=N)N)NC(=O)[C@H](Cc1c[nH]c2ccccc12)NC(=O)[C@H](Cc1ccccc1)NC(=O)[C@@H]1CCCN1)C(=O)N[C@@H](CCCNC(=N)N)C(=O)N[C@@H](CCCNC(=N)N)C(N)=O` [VS1-26, PFWRRQIRR-NH2] (H-PFWRRQIRR-NH2; N-terminus assumed), the “average IC50” value is 6 µg/mL and the “average MIC” value turned out to be 32 µg/mL.
For `CC[C@H](C)[C@H](NC(=O)[C@H](CCCNC(=N)N)NC(=O)[C@H](C)NC(=O)[C@H](CCCNC(=N)N)NC(=O)[C@H](Cc1c[nH]c2ccccc12)NC(=O)[C@H](Cc1ccccc1)NC(=O)[C@@H]1CCCN1)C(=O)N[C@@H](CCCNC(=N)N)C(=O)N[C@@H](CCCNC(=N)N)C(N)=O` [VS1-27, PFWRARIRR-NH2] (H-PFWRARIRR-NH2; N-terminus assumed) the same measures were 8 µg/mL and 32 µg/mL.
As to `CC[C@H](C)[C@H](NC(=O)[C@H](CCCNC(=N)N)NC(=O)[C@H](CCCCN)NC(=O)[C@H](CCCNC(=N)N)NC(=O)[C@H](Cc1c[nH]c2ccccc12)NC(=O)[C@H](Cc1ccccc1)NC(=O)[C@@H]1CCCN1)C(=O)N[C@@H](CCCNC(=N)N)C(=O)N[C@@H](CCCNC(=N)N)C(N)=O` [VS1-28, PFWRKRIRR-NH2] (H-PFWRKRIRR-NH2; N-terminus assumed), the “average IC50” value was found to be 8 µg/mL and the “average MIC” value was 32 µg/mL.
For `CC(C)C[C@H](NC(=O)[C@H](CCCNC(=N)N)NC(=O)[C@H](CCCCN)NC(=O)[C@H](CCCNC(=N)N)NC(=O)[C@H](Cc1c[nH]c2ccccc12)NC(=O)[C@H](Cc1ccccc1)NC(=O)[C@@H]1CCCN1)C(=O)N[C@@H](CCCNC(=N)N)C(=O)N[C@@H](CCCNC(=N)N)C(N)=O` [VS1-29, PFWRKRLRR-NH2] (H-PFWRKRLRR-NH2; N-terminus assumed) the same measures were 9 µg/mL and 32 µg/mL.
